Data on 16 molecules can be found in PubChem BioAssay (NCI).

Each structure is given as a SMILES string.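 In this assay, cells in 96-well plates receive the compound at five concentrations for 48 hours. Endpoints are linearly interpolated between the surrounding concentrations. TGI is the concentration that stops growth completely.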 Where a SMILES comes first, the peptide text is derived from it. [ ]: non-standard residue; d: D form. pGlu = O=C1CC[CH](C(=O)O)N1 Some results are limits rather than exact numbers.

Holding throughout (assay): inhibition of tumour cell growth, NCI panel, 48 h
The subject of assay [1] is KM12 colon.
Assay [2] relates to CAKI-1 renal.
Assay [3] relates to UACC-257 melanoma.
For assay [4], the system named is SN12C renal.
Assay [5] has as its system NCI/ADR-RES ovarian.
Assay [6] relates to HCC-2998 colon.
Assay [7] relates to MALME-3M melanoma.
The test system of assay [8] is U251 CNS.
The subject of assay [9] is SNB-19 CNS.
Assay [10] has as its system RXF 393 renal.

In the case of `CC1(C)O[C@H]2OC(CO)C(OS(C)(=O)=O)[C@H]2O1` (stereo not given in full), the TGI in [1], in assay [2], in assay [3], in assay [4], in assay [5] and in assay [6] was over 100 µM each time. Also, the TGI in [7], in assay [8] and in assay [9] was over 100 µM throughout.
As to `C=CC[C@@H]1C=C[C@@H](C(=O)OC)n2c(=O)n(-c3ccccc3)c(=O)n21`, the TGI in [1], in assay [2], in assay [3], in assay [4], in assay [5] and in assay [6] was over 100 µM throughout. Moreover, the TGI in [8] and in assay [9] was over 100 µM in each case.
With `N#CCOc1cccc(C2(N3CC=CCC3)CCCCC2)c1`, the TGI in [1], in [2], in assay [3], in [4], in [5] and in assay [7] was over 100 µM throughout. In addition, the TGI in assay [8] and in assay [9] was over 100 µM each time.
As to `CCC/C(Cl)=N\OC(=O)Nc1ccc(F)c([N+](=O)[O-])c1`, the TGI in assay [1] turned out to be 32.7 µM; in assay [2] it was 15.5 µM; in [3], 34.2 µM; in [4] it was 72.2 µM; in [5], 36.6 µM; in assay [6], 31.3 µM. For the same molecule, the TGI turned out to be 22.8 µM in assay [7], 37.3 µM in assay [8] and 28.5 µM in assay [9].
Regarding `Cc1ccc(S(=O)(=O)C2c3nc4ccccc4cc3-c3nc4ccccc4nc32)cc1` (stereo not given), the TGI in [1], in [2], in assay [3], in assay [4], in [6] and in assay [7] was over 100 µM each time. Moreover, the TGI in [8] and in assay [9] was over 100 µM each time.
For the molecule `COc1ccc2c(c1)CC1(O)COc3cc(OC)ccc3C1O2` (stereo not given), the TGI in assay [1], in assay [2], in [3], in assay [4], in [5] and in assay [6] was over 100 µM in each case. Besides, the TGI in assay [7] and in assay [8] was over 100 µM in each case.
Consider `CC(NC(=O)C(Cc1cnc[nH]1)NC(=O)C1CCC(=O)N1)C(N)=O` (stereo not drawn) ([pGlu]-His-Ala-NH2; configuration not given here), for which the TGI in assay [1], in assay [4], in [6], in assay [7], in [10] and in assay [8] was over 100 µM each time. This molecule also had a TGI in assay [9] of over 100 µM.
For the molecule `Nc1nn(CC(O)CO)c(=O)s1` (stereo not given), the TGI in assay [3], in assay [4], in assay [6], in assay [7], in assay [10] and in assay [8] was over 100 µM each time. Besides, in assay [9], the TGI was over 100 µM.
In the case of `O=C(CCc1ccc(O)c(O)c1)NCCc1ccc(O)c(O)c1`, the TGI in assay [1], in assay [3], in [4], in assay [5], in assay [6] and in assay [7] was over 100 µM throughout. In addition, the TGI in assay [10] is over 100 µM; in assay [8], 31 µM; in assay [9], over 100 µM.
Regarding `CC1(C)OCC(COC(=O)NCn2cc(-c3ccccc3)nn2)O1` (stereo not given), the TGI in assay [1], in assay [2], in assay [3], in [4], in [5] and in assay [6] was over 100 µM throughout. Moreover, the TGI in assay [7], in assay [8] and in assay [9] was over 100 µM throughout.
Turning to `N#CCSc1c(-c2ccccc2)c(=O)n(-c2ccccc2)c(=S)n1-c1ccccc1`, the TGI in assay [1], in assay [2], in assay [3], in assay [4], in assay [5] and in [7] was over 100 µM throughout. The TGI in assay [8] and in assay [9] was over 100 µM each time.
As for `COc1ccc(-c2nnc(CCCCCCCCc3nnc(-c4ccc(OC)cc4)n3N)n2N)cc1`, the TGI in [1] was over 100 µM; in assay [2] it was over 100 µM; in assay [3], over 100 µM; in assay [4], over 100 µM; in assay [5], over 31.6 µM; in assay [6] it was over 100 µM. The TGI in [7], in assay [8] and in assay [9] was over 100 µM throughout.
For `CCOC(=O)C1=CC(C)(C(=O)OCC)Nc2c(nc(SC)n(C)c2=O)N1` (stereo not given), the TGI in assay [1], in assay [2], in [3], in assay [4], in assay [5] and in assay [6] was over 10 µM throughout. Besides, the TGI in [7], in assay [8] and in assay [9] was over 10 µM each time.
`Cc1c(O)c(=O)ccn1CCc1c[nH]c2ccccc12`: the TGI in [1] is over 100 µM; in assay [2], 7.25 µM; in assay [3], 15.5 µM; in assay [5] it was 35.6 µM; in [7] it was 55.4 µM; in assay [8], over 100 µM. The TGI in assay [9] is over 100 µM.
On to `COc1ccc(/C=N\NC(=O)Nc2cccc3ccccc23)cc1`, for which the TGI in assay [1] is over 100 µM; in assay [2], 35.3 µM; in assay [3], over 100 µM; in assay [4], over 100 µM; in assay [5], over 100 µM; in assay [6] it was over 100 µM. The TGI in [7] was over 100 µM; in assay [8], 36.5 µM; in assay [9] it was 36.8 µM.
As to `NC(=O)CCC(NC(=O)c1cccc2c(=O)c3ccccc3[nH]c12)C(=O)O` (stereo not given), the TGI in assay [1], in assay [4], in assay [5], in assay [7], in [8] and in assay [9] was over 100 µM each time.
